Consider seven compounds from patent US20100086519A1, “Treatment of Hepatitis C Infection With Metalloporphyrins” (The Charlotte-Mecklenburg Hospital Authority d/b/a …, priority 2008, published 2010).

Where a SMILES comes first, the peptide text is derived from it. The star is where a group is joined. Cbz = O=C(OCc1ccccc1)*

Data set [1] has as its target T1, HCV NS5A protein (Hepatitis C virus genotype 1b, UniProt Q9WMX2). The data set is described as follows: NS5A protein levels by Western blot in 9-13 cells. The class given is cell-based. Set-up: processed into structural (C, E1, E2) and nonstructural (NS2, NS3, NS4A, NS4B, NS5A and NS5B) proteins; expressed in transfected cells; host or cells: 9-13 cells (human hepatoma cells with a replicating HCV NS3-NS5B region). As to conditions: 9-13 cells; for NS5A protein levels, proteasome inhibitor alone: absence of ZnMP, FIG. 5C; for effect on degradation of NS5A by ZnMP 5 μM: epoxomicin 5, 10 μM or MG132 10, 20 μM 30 min before ZnMP 5 μM; for effect on degradation of NS5A by ZnMP 5 μM / effect on degradation of NS5A by ZnMP 10 μM / NS5A protein levels: 4 hours; for effect on degradation of NS5A by ZnMP 10 μM: epoxomicin 5, 10 μM or MG132 10, 20 μM 30 min before ZnMP 10 μM; for NS5A protein levels: 10 μM, FIG. 2A. An excerpt:
Bartenschlager (University of Heidelberg, Heidelberg, Germany).
Biochim Biophys Acta 2008; 1779:195-203.
In general terms: In western blotting, separated proteins are transferred to a membrane and probed.

In a further data set the test system is HCV. The data set is described as follows: anti-viral activity (summary statement). The format is cell-based, hepatitis C virus.
Data set [2] concerns the target T1, HCV NS5A protein. The data set is described as follows: polyubiquitination of NS5A by immunoprecipitation and immunoblot in 9-13 cells. The class given is cell-based. Set-up: processed into structural (C, E1, E2) and nonstructural (NS2, NS3, NS4A, NS4B, NS5A and NS5B) proteins; expressed in transfected cells; host or cells: 9-13 cells (human hepatoma cells with a replicating HCV NS3-NS5B region). The method, then:
Immunoprecipitation was carried out according to the Manufacturer's protocol. Briefly, cells were harvested in cold radioimmunoprecipitation assay (RIPA) buffer (50 mM Tris-HC1 [pH 7.4], 150 mM NaCl, 1 mM EDTA, 0.25% sodium deoxycholate, 1% IGEPAL CA-630, 1 mM PMSF, 1 mM NaF, 1 mM Na3VO4 and 1 μg/ml each of aprotinin, leupeptin, and pepstatin). The samples were pre-cleared with Protein A/G Agarose for 10 min at 4° C. and subsequently incubated while gently rotating at 4° C. overnight with primary antibody, followed by Protein A/G beads for 1 h at 4° C. Beads were spun down and washed twice with RIPA buffer. Protein samples were separated by electrophoresis on 4-15% SDS-PAGE gels, and transferred to PVDF membrane, conjugated ubiquitin was detected as described for Western blot analysis using anti-ubiquitin antibody.
This Example investigates whether ZnMP induces polyubquitination of NS5A to gain insight into the mechanism by which ZnMP mediates degradation of NS5A protein. 9-13 cells were treated without or with 10 μM ZnMP for 4 h. Total proteins were extracted for subsequent Western blot or immunoprecipitation analysis. Immunoprecipitation was carried out using anti-HCV NS5A antibody. Ubiquitin conjugation of NS5A [polyubiquitinated NS5A (Ub)n-NS5A]was examined with immunoprecipitation using an anti-HCV NS5A antibody and immunoblot using an anti-ubiquitin antibody. […] In FIG. 6B, ubiquitination of NS5A following ZnMP treatment, or vehicle (DMSO) only was compared. The positions of molecular mass markers (in kilodaltons) are indicated to the left of the gel. The bracket indicates polyubiquitinated NS5A. Asterisks indicate cross-reacting immunoglobulin heavy chain. […] These bands may represent polyubiquitinated NS5A.

For the next data set, the system named is 9-13 cells. Description: growth of cells exposed to proteasome inhibitor. The format is cell-based, human. To be noted: 20 μM.
A further data set relates to HO-1 gene. To be noted: NIH 3T3 cells; cited from earlier work.
The next data set has as its target T2, Bach1 (Mus musculus, UniProt P97302).
T2 construct: host or cells: NIH 3T3 cells
T2 sequence (P97302 1-739): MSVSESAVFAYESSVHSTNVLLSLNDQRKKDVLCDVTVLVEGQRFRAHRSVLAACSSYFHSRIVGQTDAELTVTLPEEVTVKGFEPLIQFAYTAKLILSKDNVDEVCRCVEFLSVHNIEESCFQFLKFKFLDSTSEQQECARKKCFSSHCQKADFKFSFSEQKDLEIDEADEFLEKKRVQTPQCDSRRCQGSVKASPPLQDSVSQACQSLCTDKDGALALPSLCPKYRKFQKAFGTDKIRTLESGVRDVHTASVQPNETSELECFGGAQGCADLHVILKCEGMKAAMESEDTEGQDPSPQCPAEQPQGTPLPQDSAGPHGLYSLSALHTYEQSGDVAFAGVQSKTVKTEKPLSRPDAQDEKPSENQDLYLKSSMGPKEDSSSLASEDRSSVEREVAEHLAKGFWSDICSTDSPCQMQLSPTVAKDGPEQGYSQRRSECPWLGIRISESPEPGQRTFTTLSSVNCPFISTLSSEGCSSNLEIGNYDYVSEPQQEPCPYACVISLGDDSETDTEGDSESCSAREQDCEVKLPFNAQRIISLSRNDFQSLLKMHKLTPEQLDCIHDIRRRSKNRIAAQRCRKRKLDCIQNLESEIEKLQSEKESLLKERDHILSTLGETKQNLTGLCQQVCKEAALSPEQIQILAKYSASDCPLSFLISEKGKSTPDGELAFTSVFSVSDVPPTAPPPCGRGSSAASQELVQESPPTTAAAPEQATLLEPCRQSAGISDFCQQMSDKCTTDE
To be noted: NIH 3T3 cells; cited from earlier work.

T1 sequence (Q9WMX2 1973-2419): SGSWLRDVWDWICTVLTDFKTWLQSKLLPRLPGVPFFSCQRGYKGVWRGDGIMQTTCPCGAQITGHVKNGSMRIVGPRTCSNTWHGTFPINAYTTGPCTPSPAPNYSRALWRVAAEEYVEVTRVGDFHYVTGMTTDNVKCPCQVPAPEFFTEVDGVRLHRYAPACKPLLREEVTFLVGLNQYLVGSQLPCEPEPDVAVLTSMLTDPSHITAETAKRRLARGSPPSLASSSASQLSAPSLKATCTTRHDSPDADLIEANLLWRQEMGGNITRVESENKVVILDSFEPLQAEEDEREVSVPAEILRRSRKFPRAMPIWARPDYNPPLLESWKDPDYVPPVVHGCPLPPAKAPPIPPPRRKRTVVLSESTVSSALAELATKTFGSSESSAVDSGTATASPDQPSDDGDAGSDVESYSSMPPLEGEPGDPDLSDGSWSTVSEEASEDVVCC

Regarding `CC(C)C[C@@H](C=O)NC(=O)[C@H](CC(C)C)NC(=O)[C@H](CC(C)C)NC(=O)OCc1ccccc1` [MG132] (Cbz-Leu-Leu-Leu-aldehyde), on HCV NS5A protein [1], the “NS5A protein levels, proteasome inhibitor alone” value is “did not affect”; the “effect on degradation of NS5A by ZnMP 5 μM” value is reported as “completely abrogated”; the “effect on degradation of NS5A by ZnMP 10 μM” value is given as “significant reversal”.
Turning to `c1ccc(CN(CCN(Cc2ccccn2)Cc2ccccn2)Cc2ccccn2)nc1` [TEPN, N, N, N, N-tetrakis-(2-pyridylmethyl) ethylenediamine], on HCV NS5A protein [1] (chelator 30 min before ZnMP, then 4 h, FIG. 3), the “effect on ZnMP-mediated down-regulation of NS5A protein levels” value was “did not affect”.
On to `[Cl-].[Cl-].[Zn+2]` [ZnCl2, zinc chloride], for which, on HCV NS5A protein [1], the NS5A protein levels entry is “not affected”.
`C=CC1=C(C)c2cc3[n-]c(cc4nc(cc5[n-]c(cc1n2)c(C)c5C=C)C(C)=C4CCC(=O)O)c(CCC(=O)O)c3C.[Zn+2]` [ZnPP, Zinc protoporphyrin]: the “anti-viral activity (summary statement)” value in the data set with HCV was “display anti-viral activity”. For the same compound, the “polyubquitination of NS5A (summary statement)” value at HCV NS5A protein [2] is reported as “induce polyubquitination”.
Turning to `CC[C@H](C)[C@H](NC(=O)[C@H]([C@@H](C)CC)N(C)C(C)=O)C(=O)N[C@H](C(=O)N[C@@H](CC(C)C)C(=O)[C@@]1(C)CO1)[C@@H](C)O` [epoxomicin], the “toxicity to the cells (cell growth)” value with 9-13 cells is on record as “toxic”. At HCV NS5A protein [1], the “NS5A protein levels, proteasome inhibitor alone” value is “did not affect”; the “effect on degradation of NS5A by ZnMP 5 μM” value is “completely abrogated”; the “effect on degradation of NS5A by ZnMP 10 μM” value is on record as “significant reversal”.
For the compound Tin mesoporphyrin [SnMP], the HO-1 gene expression result in the data set with HO-1 gene was “induce”. At Bach1, the Bach1 protein levels entry is “down-regulate”. In addition, the “NS5A protein levels, time course” value on HCV NS5A protein [1] (10 μM, 0, 2, 4, 6 h, FIG. 2B) was “no detectable effects”.
In the case of mesoporphyrin, the NS5A protein levels result at HCV NS5A protein [1] was “not affected”.
